Here are results for one compound from patent US20140364500A1, “URSOLIC ACID SALTS FOR TREATING DIABETES AND OBESITY” (priority 2012, published 2014).

The conditions of data set [1]: Merck Index, 11th Edition, page 1556; cited from earlier work.
Data set [2] is described as follows: Solubility determination in water by HPLC assay. In kind it is physicochemical. The following applies: filtered, filtrate assayed by HPLC. The procedure:
The average AUC of the three runs was used to determine the concentration.
Agilent 1100 HPLC; Eclipse XDB-C18 50×4.6 mm 1.8 micron column; Gradient—5 min 95% water (0.10% TFA) to 95% acetonitrile (0.07% TFA); 1.5 mL/min; UV Detection @ 210 nm.

The structures appear in SMILES notation.

For the compound `C[C@H]1[C@H](C)CC[C@]2(C(=O)O)CC[C@]3(C)C(=CC[C@@H]4[C@@]5(C)CC[C@H](O)C(C)(C)[C@@H]5CC[C@]43C)[C@H]12` [Ursolic acid], the “solubility in water (literature citation)” value in data set [1] was “insoluble in water”. The “detection by HPLC assay in filtrate of water saturated with the substance” value in data set [2] is reported as “not detected”.
